Reference: patent US8802597B2, “Herbicidal pyrimidines” (E I du Pont de Nemours and Company, priority 2003, dated 2014)
Like-named read-outs stand apart in the source and are kept apart here.

Columns and labels:
Type in all cases: in vivo
[1] = tested on: goosegrass (Eleusine indica); assay: Test C pre/postemergence; conditions: Eleusine indica; for pest or weed control at 62 g/ha: 62 g ai/ha; for pest or weed control at 125 g/ha: 125 g ai/ha; for pest or weed control at 250 g/ha: 250 g ai/ha; for pest or weed control at 500 g/ha: 500 g ai/ha
How it was run: (§1)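 Injury scored visually 12–14 days after application on 0–100 scale (100 = complete control), relative to controls. Compounds, formulated with surfactant in non-phytotoxic solvent, applied to soil at planting (pre) or to 1- to 4-leaf plants 2–18 cm tall (post) in greenhouse.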

[2] = tested on: lambsquarters (Chenopodium album); assay: Test C pre/postemergence; conditions: Chenopodium album; for pest or weed control at 62 g/ha: 62 g ai/ha; for pest or weed control at 125 g/ha: 125 g ai/ha; for pest or weed control at 250 g/ha: 250 g ai/ha; for pest or weed control at 500 g/ha: 500 g ai/ha
How it was run: as §1

[3] = tested on: eastern black nightshade (Solanum ptycanthum); assay: Test C pre/postemergence; conditions: Solanum, pre-emergence, Preemergence, read-out: Plant response rating, Nightshade
How it was run: as §1

[4] = tested on: bermudagrass (Cynodon dactylon); assay: Test C pre/postemergence; conditions: Cynodon dactylon; for pest or weed control at 62 g/ha: 62 g ai/ha; for pest or weed control at 125 g/ha: 125 g ai/ha; for pest or weed control at 125 g/ha / pest or weed control at 250 g/ha / pest or weed control at 500 g/ha: scale 0 to 100; for pest or weed control at 250 g/ha: 250 g ai/ha; for pest or weed control at 500 g/ha: 500 g ai/ha
How it was run: as §1

corn (Zea mays) = assay: Test C pre/postemergence; conditions: Zea mays; for Corn plant response rating (crop injury, 0 = no effect, 100 = complete kill) at 62 g/ha: 62 g ai/ha; for Corn plant response rating (crop injury, 0 = no effect, 100 = complete kill) at 125 g/ha: 125 g ai/ha; for Corn plant response rating (crop injury, 0 = no effect, 100 = complete kill) at 250 g/ha: 250 g ai/ha; for Corn plant response rating (crop injury, 0 = no effect, 100 = complete kill) at 500 g/ha: 500 g ai/ha
How it was run: as §1

[5] = tested on: velvetleaf (Abutilon theophrasti); assay: Test C pre/postemergence; conditions: Abutilon theophrasti; for pest or weed control at 62 g/ha: 62 g ai/ha; for pest or weed control at 125 g/ha: 125 g ai/ha; for pest or weed control at 250 g/ha: 250 g ai/ha; for pest or weed control at 500 g/ha: 500 g ai/ha
How it was run: as §1

[6] = tested on: crabgrass (Digitaria sanguinalis); assay: Test C pre/postemergence; conditions: Digitaria sanguinalis; for pest or weed control at 62 g/ha: 62 g ai/ha; for pest or weed control at 125 g/ha: 125 g ai/ha; for pest or weed control at 250 g/ha: 250 g ai/ha; for pest or weed control at 500 g/ha: 500 g ai/ha
How it was run: as §1

[7] = tested on: cocklebur (Xanthium strumarium); assay: Test C pre/postemergence; conditions: Xanthium strumarium; for pest or weed control at 62 g/ha: 62 g ai/ha; for pest or weed control at 125 g/ha: 125 g ai/ha; for pest or weed control at 250 g/ha: 250 g ai/ha; for pest or weed control at 500 g/ha: 500 g ai/ha
How it was run: as §1

[8] = tested on: barnyardgrass (Echinochloa crus-galli); assay: Test A pre/postemergence; conditions: Echinochloa crus-galli, 240 h, read-out: Plant response rating, Barnyardgrass; for pest or weed control at 500 g/ha: 500 g ai/ha; for pest or weed control at 2000 g/ha: 2000 g ai/ha
How it was run: (§2)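 Pre/post greenhouse screen; loam/sand soil; solvent + surfactant formulation; pre = directed soil spray at planting, post = 1–2 leaf plants, 2–10 cm; ~10 d; visual 0–100 rating vs untreated.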

[9] = tested on: giant foxtail (Setaria faberi); assay: Test A pre/postemergence; conditions: Setaria faberi, 240 h, read-out: Plant response rating, Foxtail, Giant; for pest or weed control at 500 g/ha: 500 g ai/ha; for pest or weed control at 2000 g/ha: 2000 g ai/ha
How it was run: as §2

[10] = post-emergence, Postemergence, scale 0 to 100 (0 no effect, 100 complete control), read-out: Goosegrass plant response rating
[11] = post-emergence, Postemergence, scale 0 to 100, read-out: Plant response rating, Goosegrass
[12] = pre-emergence, Preemergence, scale 0 to 100, read-out: Plant response rating, Goosegrass
[13] = post-emergence, Postemergence, scale 0 to 100 (0 no effect, 100 complete control), read-out: Lambsquarters plant response rating
[14] = post-emergence, Postemergence, scale 0 to 100, read-out: Plant response rating, Lambsquarters
[15] = pre-emergence, Preemergence, scale 0 to 100, read-out: Plant response rating, Lambsquarters
[16] = post-emergence, Postemergence, read-out: Plant response rating, Bermudagrass
[17] = pre-emergence, Preemergence, read-out: Plant response rating, Bermudagrass
[18] = post-emergence, Postemergence, scale 0 to 100 (0 no effect, 100 complete control), read-out: Corn plant response rating
[19] = post-emergence, Postemergence, scale 0 to 100
[20] = pre-emergence, Preemergence, scale 0 to 100
[21] = post-emergence, Postemergence, scale 0 to 100 (0 no effect, 100 complete control), read-out: Velvetleaf plant response rating
[22] = post-emergence, Postemergence, scale 0 to 100, read-out: Plant response rating, Velvetleaf
[23] = pre-emergence, Preemergence, scale 0 to 100, read-out: Plant response rating, Velvetleaf
[24] = post-emergence, Postemergence, scale 0 to 100 (0 no effect, 100 complete control), read-out: Crabgrass plant response rating
[25] = post-emergence, Postemergence, scale 0 to 100, read-out: Plant response rating, Crabgrass
[26] = pre-emergence, Preemergence, scale 0 to 100, read-out: Plant response rating, Crabgrass
[27] = post-emergence, Postemergence, scale 0 to 100 (0 no effect, 100 complete control), read-out: Cocklebur plant response rating
[28] = post-emergence, Postemergence, scale 0 to 100, read-out: Plant response rating, Cocklebur
[29] = pre-emergence, Preemergence, scale 0 to 100, read-out: Plant response rating, Cocklebur
[30] = post-emergence, Postemergence, 0 to 100 scale (0 no effect, 100 complete control)
[31] = pre-emergence, Preemergence, 0 to 100 scale where 0 is no effect and 100 is complete control, approximately ten days
[32] = pre-emergence, Preemergence, 0 to 100 scale (0 no effect, 100 complete control)

CCOC(=O)c1nc(C2CC2)nc(N)c1Br [Compound 1, ethyl 6-amino-5-bromo-2-cyclopropyl-4-pyrimidinecarboxylate]
pest or weed control at 62 g/ha [1, 10]: 0%
pest or weed control at 125 g/ha [1, 10]: 0%
pest or weed control at 250 g/ha [1, 11]: 40%
pest or weed control at 500 g/ha [1, 11]: 70%
pest or weed control at 62 g/ha ([1]; pre-emergence, Preemergence, scale 0 to 100, 0 no effect, 100 complete control, read-out: Plant response rating, Goosegrass): 0%
pest or weed control at 125 g/ha [1, 12]: 0%
pest or weed control at 250 g/ha [1, 12]: 10%
pest or weed control at 500 g/ha [1, 12]: 70%
pest or weed control at 62 g/ha [2, 13]: 100%
pest or weed control at 125 g/ha [2, 13]: 100%
pest or weed control at 250 g/ha [2, 14]: 100%
pest or weed control at 500 g/ha [2, 14]: 100%
pest or weed control at 62 g/ha ([2]; pre-emergence, Preemergence, scale 0 to 100, 0 no effect, 100 complete control, read-out: Plant response rating, Lambsquarters): 95%
pest or weed control at 125 g/ha [2, 15]: 100%
pest or weed control at 250 g/ha [2, 15]: 100%
pest or weed control at 500 g/ha [2, 15]: 100%
pest or weed control at 62 g/ha ([3]; 62 g ai/ha, scale 0 to 100, 0 no effect, 100 complete control): 100%
pest or weed control at 125 g/ha ([3]; 125 g ai/ha, scale 0 to 100): 100%
pest or weed control at 250 g/ha ([3]; 250 g ai/ha, scale 0 to 100): 100%
pest or weed control at 500 g/ha ([3]; 500 g ai/ha, scale 0 to 100): 100%
pest or weed control at 62 g/ha ([4]; post-emergence, Postemergence, scale 0 to 100 (0 no effect, 100 complete control), read-out: Bermudagrass plant response rating): 70%
pest or weed control at 125 g/ha [4, 16]: 90%
pest or weed control at 250 g/ha [4, 16]: 90%
pest or weed control at 500 g/ha [4, 16]: 90%
pest or weed control at 62 g/ha ([4]; pre-emergence, Preemergence, scale 0 to 100, 0 no effect, 100 complete control, read-out: Plant response rating, Bermudagrass): 0%
pest or weed control at 125 g/ha [4, 17]: 50%
pest or weed control at 250 g/ha [4, 17]: 70%
pest or weed control at 500 g/ha [4, 17]: 90%
Corn plant response rating (crop injury, 0 = no effect, 100 = complete kill) at 62 g/ha (corn (Zea mays); [18]): 10%
Corn plant response rating (crop injury, 0 = no effect, 100 = complete kill) at 125 g/ha (corn (Zea mays); [18]): 15%
Corn plant response rating (crop injury, 0 = no effect, 100 = complete kill) at 250 g/ha (corn (Zea mays); [19]): 40%
Corn plant response rating (crop injury, 0 = no effect, 100 = complete kill) at 500 g/ha (corn (Zea mays); [19]): 45%
Corn plant response rating (crop injury, 0 = no effect, 100 = complete kill) at 62 g/ha (corn (Zea mays); pre-emergence, Preemergence, scale 0 to 100, 0 no effect, 100 complete control, read-out: Plant response rating, Corn): 0%
Corn plant response rating (crop injury, 0 = no effect, 100 = complete kill) at 125 g/ha (corn (Zea mays); pre-emergence, Preemergence, scale 0 to 100, read-out: Plant response rating, Corn): 0%
Corn plant response rating (crop injury, 0 = no effect, 100 = complete kill) at 250 g/ha (corn (Zea mays); [20]): 50%
Corn plant response rating (crop injury, 0 = no effect, 100 = complete kill) at 500 g/ha (corn (Zea mays); [20]): 70%
pest or weed control at 62 g/ha [5, 21]: 85%
pest or weed control at 125 g/ha [5, 21]: 90%
pest or weed control at 250 g/ha [5, 22]: 100%
pest or weed control at 500 g/ha [5, 22]: 100%
pest or weed control at 62 g/ha ([5]; pre-emergence, Preemergence, scale 0 to 100, 0 no effect, 100 complete control, read-out: Plant response rating, Velvetleaf): 80%
pest or weed control at 125 g/ha [5, 23]: 90%
pest or weed control at 250 g/ha [5, 23]: 95%
pest or weed control at 500 g/ha [5, 23]: 100%
pest or weed control at 62 g/ha [6, 24]: 30%
pest or weed control at 125 g/ha [6, 24]: 85%
pest or weed control at 250 g/ha [6, 25]: 85%
pest or weed control at 500 g/ha [6, 25]: 90%
pest or weed control at 62 g/ha ([6]; pre-emergence, Preemergence, scale 0 to 100, 0 no effect, 100 complete control, read-out: Plant response rating, Crabgrass): 10%
pest or weed control at 125 g/ha [6, 26]: 60%
pest or weed control at 250 g/ha [6, 26]: 90%
pest or weed control at 500 g/ha [6, 26]: 95%
pest or weed control at 62 g/ha [7, 27]: 90%
pest or weed control at 125 g/ha [7, 27]: 100%
pest or weed control at 250 g/ha [7, 28]: 100%
pest or weed control at 500 g/ha [7, 28]: 100%
pest or weed control at 62 g/ha ([7]; pre-emergence, Preemergence, scale 0 to 100, 0 no effect, 100 complete control, read-out: Plant response rating, Cocklebur): 90%
pest or weed control at 125 g/ha [7, 29]: 100%
pest or weed control at 250 g/ha [7, 29]: 100%
pest or weed control at 500 g/ha [7, 29]: 100%
pest or weed control at 500 g/ha [8, 30]: 75%
pest or weed control at 2000 g/ha [8, 30]: 75%
pest or weed control at 500 g/ha [8, 31]: 60%
pest or weed control at 2000 g/ha [8, 32]: 80%
pest or weed control at 500 g/ha [9, 30]: 70%
pest or weed control at 2000 g/ha [9, 30]: 75%
pest or weed control at 500 g/ha [9, 31]: 40%
pest or weed control at 2000 g/ha [9, 32]: 85%
